# Results: patent publication US6806230B1, “Pyrimidine derivatives and herbicides containing them” (Kumiai Chemical Industry Co., Ltd., priority 1999, dated 2004)
# Tests used:
# Assay type in all cases: in vivo
# barnyard grass (Eo) [1] = assay: Test Example 1: herbicidal effects by flooded paddy field treatment; design: herbicidal effects, Eo (barnyard grass):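 0-5 growth inhibition grade; 5 = over 90%; 4 = 70-90%; 3 = 50-70%; 2 = 30-50%; 1 = 10-30%; 0 = under 10%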; settings: dose 100 g active ingredient per 10 ares, examined on the 21st day after treatment, standards of Table 44
# Summary of the method: (§1)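 Pots hold puddled paddy soil; seeds are sown and the pots flooded 3 cm deep. Next day, diluted wettable powder goes dropwise onto the water at a dose of 100 g active ingredient per 10 ares, and herbicidal effects are rated after 21 days in a greenhouse.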
# monochoria (Mo) [2] = assay: as above; design: herbicidal effects, Mo (monochoria):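 0-5 growth inhibition grade; 5 = over 90%; 4 = 70-90%; 3 = 50-70%; 2 = 30-50%; 1 = 10-30%; 0 = under 10%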; settings: dose 100 g active ingredient per 10 ares, examined on the 21st day after treatment, standards of Table 44
# Summary of the method: as §1
# barnyard grass (Ec) = assay: Test Example 2: herbicidal effects by upland soil treatment; design: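 0-5 growth inhibition grade; 5 = over 90%; 4 = 70-90%; 3 = 50-70%; 2 = 30-50%; 1 = 10-30%; 0 = under 10%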; settings: dose 100 g active ingredient per 10 ares, examined on the 21st day after treatment
# Summary of the method: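 Pre-emergence test: barnyard grass and green foxtail sown in upland soil, then soil surface sprayed with wettable-powder formulation at 100 g active ingredient per 10 ares (100 l per 10 ares). Grown in greenhouse; herbicidal effect scored on a rating scale 21 days after treatment.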
# barnyard grass (Eo) [3] = assay: Test Example 4: selectivity for a crop plant by flooded paddy field treatment; design: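 0-5 growth inhibition grade; 5 = over 90%; 4 = 70-90%; 3 = 50-70%; 2 = 30-50%; 1 = 10-30%; 0 = under 10%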; settings: barnyard grass, dose 25 gai/10a, 21st day after treatment, index per Table 44
# Summary of the method: (§2)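 Rice at the second-leaf stage is transplanted into puddled, 3 cm-flooded paddy soil alongside sown weed seeds, and a diluted wettable powder is dripped onto the water surface the following day at 25 g a.i./10 ares. Effects are rated 21 days later.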
# monochoria (Mo) [4] = assay: as above; design: scale not given here; settings: monochoria, dose 25 gai/10a, 21st day after treatment, index per Table 44
# Summary of the method: as §2
# rice (Or) = assay: as above; design: scale not given here; settings: rice transplanted at second leaf stage, dose 25 gai/10a, 21st day after treatment, index per Table 44
# Summary of the method: as §2
Structure (SMILES),"herbicidal effects, Eo (barnyard grass) (barnyard grass (Eo) [1])","herbicidal effects, Mo (monochoria) (monochoria (Mo) [2])","Ec (herbicidal effects, index) (barnyard grass (Ec))",Eo (herbicidal effect index) (barnyard grass (Eo) [3]),Mo (herbicidal effect index) (monochoria (Mo) [4]),Or (herbicidal effect index on crop) (rice (Or))
CCc1ncncc1C(N(C)C(=O)Cc1ccc(C)cc1)C(C)(C)C (racemic) [1-567],5,5,5,5,5,1
CCC(c1cncnc1C(C)(C)C)N(C)C(=O)Cc1ccc(C)cc1 (racemic) [1-573],5,5,5,5,5,1
COC1(C(c2cncnc2C(C)C)N(C)C(=O)Cc2ccc(C)cc2)OCCO1 (racemic) [1-604],5,5,5,5,5,1
C#CCN(C(=O)Cc1ccc(Cl)cc1)C(CCC)c1cncnc1CC (racemic) [1-608],5,5,5,5,5,1
C#CCN(C(=O)Cc1ccc(F)c(F)c1)C(c1cncnc1C(F)(F)F)C(C)C (racemic) [1-614],5,5,5,5,5,1
C#CCN(C(=O)Cc1ccc(C)cc1)C(c1cncnc1C(C)C)C(C)C (racemic) [1-624],5,5,5,5,5,1
C#CCN(C(=O)Cc1ccccc1)C(c1cncnc1CC)C(C)(C)C (racemic) [1-626],5,5,5,5,5,1
C#CCN(C(=O)Cc1ccc(F)cc1)C(c1cncnc1CC)C(C)(C)C (racemic) [1-627],5,5,5,5,5,1
CC(C)C(c1cncnc1C(F)(F)Cl)N(C)C(=O)OCc1ccccc1 (racemic) [1-639],5,5,5,5,4,1
CC(C)C(c1cncnc1C(F)(F)F)N(C)C(=O)Cc1ccc2ccccc2c1 (racemic) [2-1],5,5,5,5,5,0
CC(C)C(c1cncnc1C(F)(F)F)N(C)C(=O)Cc1ccsc1 (racemic) [2-2],5,5,5,5,5,1
CCN(C(=O)Cc1cccs1)C(c1cncnc1C(F)F)C(C)C (racemic) [2-7],5,5,5,5,5,1
CCN(C(=O)Cc1ccsc1)C(c1cncnc1C(F)F)C(C)C (racemic) [2-8],5,5,5,5,5,0
CN(C(=O)Cc1cccs1)C(c1ccccc1)c1cncnc1C(F)(F)F (racemic) [2-19],5,5,5,5,5,1
CN(C(=O)Cc1ccsc1)C(c1ccccc1)c1cncnc1C(F)(F)F (racemic) [2-20],5,5,5,5,5,1
CN(C(=O)Cc1ccc(Cl)s1)C(c1ccccc1)c1cncnc1C(F)(F)F (racemic) [2-31],5,5,5,5,5,0
Cc1ccc(CC(=O)N(C)C(c2ccccc2)c2cncnc2C(F)(F)F)s1 (racemic) [2-32],5,5,5,5,5,1
CN(C(=O)Cc1cccs1)C(c1cncnc1C(F)(F)F)C1(C)CC1 (racemic) [2-55],5,5,5,5,5,1
CN(C(=O)Cc1ccsc1)C(c1cncnc1C(F)(F)F)C1(C)CC1 (racemic) [2-56],5,5,5,5,5,1
CN(C(=O)Cc1ccc(Cl)s1)C(c1cncnc1C(F)(F)F)C1(C)CC1 (racemic) [2-58],5,5,5,5,5,1
C#CCN(C(=O)Cc1ccc(Cl)s1)C(c1cncnc1CC)C(C)C (racemic) [2-73],5,5,5,5,5,1
C#CCN(C(=O)Cc1ccsc1)C(c1cncnc1C(F)(F)F)C(C)C (racemic) [2-78],5,5,5,5,5,1
CC(C)C(c1cncnc1C(F)(F)F)N(C)S(=O)(=O)c1ccc(Cl)cc1 (racemic) [4-1],5,5,5,5,5,1
